Laboratory results: patent US6890948B1 (Cancer Research Technology Limited, priority 2000, dated 2005)
pIC50: −log10 of the molar value. Where two headings read alike, the source gives them in different places. Marks after values point to notes of the source that are not given here. Blank lines part the entries; values can stand above or below the compound they belong to.

Key:
[1] = tested on: Hamster lung fibroblast V79 cells; experiment: Cytotoxic effects of compounds of formula (I) with horseradish peroxidase (HRP), clonogenic cell survival; type: cell-based; conditions: 2 hours treatment, mean ± standard error of three experiments unless n given
Method: Hamster lung fibroblast V79 cells were obtained from the European Tissue Culture Collection. Cells were grown over the weekend in […] tissue culture flats as attached cells in Eagle's Modified Essential Medium (EMEM) supplemented with 10% foetal calf serum, 2 mM L-glutamine, 100 U/mL penicillin and 100 μg/mL streptomycin, and incubated in a humidified incubator at 37° C., in 5% CO2/air. […] The trypsin was deactivated by the addition of 10 mL spinner modified EMEM (supplemented with 7.5% foetal calf serum) and the cells allowed to grow in a spinning culture, pre-gassed with 5% CO2/air, maintaining the cells in logarithmic growth.
Cells were prepared for toxicity measurements by counting and plating 200, 2000 or 20,000 cells/6 cm Petri dish in 3 mL EMEM in triplicate for each sample. The cells were allowed to attach for at least 1 hour, then the medium removed and 2 mL phenol red free Hanks' balanced salt solution added, either alone (control) or with 50 or 100 μM of the compound of formula (I) to be tested. HRP (50 μL of 0.048 mg/mL) was added to the test dishes requiring it and the cells left in the incubator for 0, 0.5, 1, 1.5 or 2 hours. After the incubation time the drug was removed, the cells washed with 2 mL Hanks and then 4 mL EMEM added. The cells were allowed to grow for 7 days to colonies of >50 cells. After 7 days the medium was removed and the cells fixed with 75% methanol for 5 minutes. The methanol was then removed and the cells stained with 1% w/v crystal violet for 5 minutes. The cells were washed and colonies counted. Cell survival was determined by calculating the ratio of colonies growing compared to untreated control cells.
In table 1, values are the surviving fraction after 2 hours treatment with the IAA derivatives at the concentrations shown together with HRP (1.2 μg/mL). Unless otherwise indicated (by n=number of individual experiments), the means±the standard errors of three experiments are given.

[2] = tested on: Human bladder carcinoma T24 cells; experiment: GDEPT: clonogenic survival of cells transiently transfected with the HRP gene versus untransfected cells; type: cell-based; conditions: for pIC50: Homo sapiens, T-24, 24 h; for factor: ratio of IC50 for transfected and untransfected cells
Method: (§1) Human bladder carcinoma T24 cells, MCF-7 mammary carcinoma cells (both from European Collection of Cell Cultures, Salisbury, UK), FaDu, nasopharyngeal squamous carcinoma cells (American Type Culture Collection, Manassas, Va.) were maintained in Dulbecco's modified Eagle's medium (DMEM) supplemented with 10% foetal calf serum, 2 mM L-glutamine, 100 U/ml penicillin, 100 µg/ml streptomycin, and incubated in a humidified incubator at 37° C. and 5% CO2/air. Only cells which tested negative for mycoplasma infection were utilised.
(§2) Following drug exposure, cells were rinsed with PBS and grown for 8 to 20 days in complete DMEM supplemented with feeder cells (V79 cells exposed to 250 Gy ^60Co irradiation). After fixation and staining with 2.5% crystal violet w/v in methylated spirit, colonies of >50 cells were scored. Surviving fractions were evaluated relative to HBSS-treated controls.

[3] = tested on: FaDu, nasopharyngeal squamous carcinoma cells; experiment: as above; type: cell-based, human; conditions: for pIC50: Homo sapiens; for factor: ratio of IC50 for transfected and untransfected cells
Method: as §1, §2

[4] = tested on: MCF-7 mammary carcinoma cells; experiment: as above; type: cell-based, human; conditions: for pIC50: Homo sapiens; for factor: MCF-7, ratio of IC50 for transfected and untransfected cells
Method: as §1, §2

[5] = Distribution of 5-fluoro-indole acetic acid in vivo in mice with the Carcinoma NT tumour; conditions: 50 mg/kg i.p., female CBA mice bearing Carcinoma NT tumour, up to 2 hours
Method: 5-fluoro-indole acetic acid (5 mg/mL) in 2% v/v ethanol/water was adjusted to pH 7.4 with NaOH and injected i.p. at a dose of 50 mg/kg into female CBA mice bearing the Carcinoma NT tumour (see example 8 for details). The mice were sacrificed up to 2 hours after drug administration and the blood and tissues removed immediately and placed on ice. The whole blood was spun down and the plasma stored at −20° C. Tissue sample were weighed and homogenised in 4 to 9 volumes of ice-cold water. The homogenised tissue was then stored at −20° C.
For HPLC analysis, plasma (50 μL) was mixed with IAA internal standard (130 μM, 25 μL) and protein precipitated with acetonitrile (50 μL). The samples were spun down and the supernatant injected directly for HPLC analysis. For tissue levels, samples (250 μL) was mixed with IAA internal standard (130 μM, 25 μL) and precipitated with acetonitrile (250 μL) for direct injection for HPLC analysis. HPLC analysis was carried out with a Hypersil SODS 125×4.6 mm column eluting with A; 75% acetonitrile and B: 20 mM ammonium acetate (pH 5.1) with a gradient of 15-70% A in 10 minutes at 2 mL/minute. Detection was at 290 nm using a Waters 486 variable wavelength detector.

[6] = 100 μM IAA derivative together with HRP (1.2 μg/mL), 0^a = all cells killed, 1^b = no detectable effect
[7] = 50 μM IAA derivative together with HRP (1.2 μg/mL)

SMILES: O=C(O)Cc1c[nH]c2ccc(Br)cc12 [Compound 5-bromo, 5-bromo-indole-3-acetic acid]
- surviving fraction [1, 6]: 0.00004 ± 0.00003
- pIC50 ([2]; read-out: IC50 HRP+, T24 (anoxic), transfected cells, 24 hours exposure in anaerobic cabinet): 5.15
- pIC50 ([2]; read-out: IC50 HRP+, T24 (normoxic), transfected cells, 24 hours exposure, estimated from survival curves): 5.22
- pIC50 ([2]; read-out: IC50 HRP−, T24 (anoxic), untransfected cells, 24 hours exposure in anaerobic cabinet): 3.00
- pIC50 ([2]; read-out: IC50 HRP−, T24 (normoxic), untransfected cells, 24 hours exposure): 3.22
- factor ([2]; T24 (anoxic)): 43
- factor ([2]; T24 (normoxic)): 100
- pIC50 ([3]; 24 h, read-out: IC50 HRP+): 5.15
- pIC50 ([3]; 24 h, read-out: IC50 HRP−): 3.22
- factor [3]: 86
- pIC50 ([4]; MCF7, 24 h, read-out: IC50 HRP+): 5.15
- pIC50 ([4]; MCF7, 24 h, read-out: IC50 HRP−): 3.30
- factor [4]: 71

SMILES: O=C(O)Cc1c[nH]c2ccc(F)cc12 [Compound 5-fluoro, 5-fluoro-indole-3-acetic acid]
- surviving fraction [1, 7]: 0.0045 ± 0.003
- surviving fraction [1, 6]: 0^a
- pIC50 ([2]; T24 (anoxic), transfected cells, 24 hours exposure in anaerobic cabinet, read-out: IC50 HRP+): 4.52
- pIC50 ([2]; T24 (anoxic), untransfected cells, 24 hours exposure in anaerobic cabinet, read-out: IC50 HRP−): 2.64
- pIC50 ([2]; T24 (normoxic), transfected cells, 24 hours exposure, estimated from survival curves, read-out: IC50 HRP+): 4.40
- pIC50 ([2]; T24 (normoxic), untransfected cells, 24 hours exposure, read-out: IC50 HRP−): 2.46
- factor ([2]; T24 (anoxic)): 77
- factor ([2]; T24 (normoxic)): 88
- pIC50 ([3]; transfected cells, 24 hours exposure, read-out: IC50 HRP+): 4.70
- pIC50 ([3]; untransfected cells, 24 hours exposure, read-out: IC50 HRP−): 2.92
- factor [3]: 60
- pIC50 ([4]; MCF7, MCF-7, transfected cells, 24 hours exposure, read-out: IC50 HRP+): 3.60
- pIC50 ([4]; MCF7, MCF-7, untransfected cells, 24 hours exposure, read-out: IC50 HRP−): 3.40
- factor [4]: 1.6
- concentration in the tumour [5]: sufficient concentrations to achieve a cytotoxic effect are attained in the tumour
- levels in the kidney [5]: High levels in the kidney

SMILES: O=C(O)Cc1c[nH]c2c(F)cccc12 [SR022, 7-Fluoroindole-3-acetic acid]
- surviving fraction [1, 7]: 0.053 ± 0.022
- surviving fraction [1, 6]: 0^a
- melting point: 159 to 161 °C

SMILES: O=C(O)Cc1c[nH]c2ccc(Cl)cc12 [SR024, 5-Chloroindole-3-acetic acid]
- surviving fraction [1, 6]: 0.0027 ± 0.0022
- melting point: 160 to 161 °C

SMILES: Cc1[nH]c2ccc(F)cc2c1CC(=O)O [SR036, 5-Fluoro-2-methylindole-3-acetic acid]
- melting point: 182 to 184 °C

SMILES: O=C(O)Cc1c[nH]c2cccc(F)c12 [SR039, 4-Fluoroindole-3-acetic acid]
- surviving fraction [1, 6]: 0.000085 ± 0.00007
- melting point: 129 to 131 °C

SMILES: O=C(O)Cc1c[nH]c2cc(F)ccc12 [SR043, 6-Fluoroindole-3-acetic acid]
- surviving fraction [1, 6]: 0.00995 (n = 2)
- melting point: 161 to 163 °C

SMILES: O=C(O)Cc1c[nH]c2c(Cl)cccc12 [SR052, 7-Chloroindole-3-acetic acid]
- surviving fraction [1, 6]: 0.000042 (n = 1)
- melting point: 164 to 165 °C

SMILES: O=C(O)Cc1c[nH]c2cc(Cl)ccc12 [SR058, 6-Chloroindole-3-acetic acid]
- surviving fraction [1, 7]: 0.00085 (n = 1)
- surviving fraction [1, 6]: 0^a
- melting point: 183 to 185 °C

SMILES: O=C(O)Cc1c[nH]c2cc(Br)ccc12 [SR069, 6-Bromoindole-3-acetic acid]
- surviving fraction [1, 7]: 0.0031 ± 0.0023
- surviving fraction [1, 6]: 0^a
- melting point: 174 to 176 °C

Results, then the compound that gave them:

- melting point: 120 to 122 °C
SMILES: O=C(O)Cc1c[nH]c2ccc(OC(F)(F)F)cc12 [SR073, 5-Trifluoromethoxyindole-3-acetic acid]

- melting point: 223 to 224 °C
SMILES: O=C(O)Cc1c[nH]c2cc(Cl)cc(Cl)c12 [SR085, 4,6-Dichloroindole-3-acetic acid]

- melting point: 164 to 166 °C
SMILES: O=C(O)Cc1c[nH]c2c(F)cc(Cl)cc12 [SR091, 5-Chloro-7-fluoroindole-3-acetic acid]

- melting point: 138 to 140 °C
SMILES: Cc1cc(F)c2[nH]cc(CC(=O)O)c2c1 [SR109, 7-Fluoro-5-methylindole-3-acetic acid]

- melting point: 130 to 132 °C (dec.)
SMILES: Cn1cc(CC(=O)O)c2ccc(Cl)cc21 [SR139, 6-Chloro-1-methylindole-3-acetic acid]

- melting point: 162 to 164 °C (dec.)
SMILES: Cc1ccc(F)c2[nH]cc(CC(=O)O)c12 [SR148, 7-Fluoro-4-methylindole-3-acetic acid]

- melting point: 166 to 168 °C
SMILES: O=C(O)Cc1c[nH]c2ccc(-c3ccc(Cl)cc3)cc12 [SR150, 5-(4-Chlorophenyl)indole-3-acetic acid]
